Patent US20100227859A1, “TRICYCLIC COMPOUNDS AS MATRIX METALLOPROTEINASE INHIBITORS” (priority 2007, published 2010)

Target: purified human MMP-12 enzyme (Homo sapiens, UniProt P39900)
Assay: MMP-12 FRET assay
Format: biochemical
Conditions: substrate 20 μM, room temperature
Method in brief: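 Enzyme pre-incubated 30 min at room temperature with compound in 50 mM HEPES pH 7.4, 100 mM NaCl, 5 mM CaCl2, 0.005% Brij-35, 10% DMSO final. Reaction started with 20 μM MCA-Pro-Leu-Gly-Leu-Dpa(DNP)-Ala-Arg, and initial cleavage rate read over 30 min (λex 325, λem 395 nm). IC50 from slope-factor inhibition fit.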

Sequence of purified human MMP-12 enzyme (P39900 106-470): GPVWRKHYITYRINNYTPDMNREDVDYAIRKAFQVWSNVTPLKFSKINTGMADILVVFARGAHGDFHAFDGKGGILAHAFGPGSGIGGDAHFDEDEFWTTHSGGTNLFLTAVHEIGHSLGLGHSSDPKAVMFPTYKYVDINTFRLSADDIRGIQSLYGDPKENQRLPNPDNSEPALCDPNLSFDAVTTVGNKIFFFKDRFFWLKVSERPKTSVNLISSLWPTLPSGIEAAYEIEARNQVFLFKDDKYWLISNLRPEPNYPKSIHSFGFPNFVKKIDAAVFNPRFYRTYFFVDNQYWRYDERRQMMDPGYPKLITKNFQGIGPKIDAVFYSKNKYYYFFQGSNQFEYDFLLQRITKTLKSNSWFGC

SMILES	IC50
CC(C)[C@H](NS(=O)(=O)c1ccc2c(c1)oc1ccc(-c3nc(-c4ccc(C(F)(F)F)cc4)cs3)cc12)C(=O)O [Compound 283, (S)-3-methyl-2-(8-(4-(4-(trifluoromethyl)phenyl)thiazol-2-yl)dibenzo[b,d]furan-3-sulfonamido)butanoic acid]	< 1.5 nM
CC(C)[C@@H](NS(=O)(=O)c1ccc2oc3cc(-c4cccs4)ccc3c2c1)C(=O)O [Compound 118, (R)-3-methyl-2-(7-(thiophen-2-yl)dibenzo[b,d]furan-2-sulfonamido)butanoic acid]	0.6 nM
CC(C)[C@H](NS(=O)(=O)c1ccc2c(c1)oc1cc(-c3sc(Cl)cc3Cl)ccc12)C(=O)O [Compound 85, (S)-2-(7-(3,5-dichlorothiophen-2-yl)dibenzo[b,d]furan-3-sulfonamido)-3-methylbutanoic acid]	< 1.5 nM
Cc1c(-c2ccc3oc4cc(S(=O)(=O)N[C@H](C(=O)O)C(C)C)ccc4c3c2)cnn1-c1ccccc1 [Compound 162, (S)-3-methyl-2-(8-(5-methyl-1-phenyl-1H-pyrazol-4-yl)dibenzo[b,d]furan-3-sulfonamido)butanoic acid]	< 1.5 nM
CC(C)[C@H](NS(=O)(=O)c1ccc2c(c1)oc1cc(-c3noc(C4CC4)n3)ccc12)C(=O)O [Compound 187, (S)-2-(7-(5-cyclopropyl-1,2,4-oxadiazol-3-yl)dibenzo[b,d]furan-3-sulfonamido)-3-methylbutanoic acid]	5.5 nM
CC(C)[C@@H](NS(=O)(=O)c1ccc2oc3cc(-c4noc(C(F)(F)F)n4)ccc3c2c1)C(=O)O [Compound 141, (R)-3-methyl-2-(7-(5-(trifluoromethyl)-1,2,4-oxadiazol-3-yl)dibenzo[b,d]furan-2-sulfonamido)butanoic acid]	14 nM
CC(C)[C@H](NS(=O)(=O)c1ccc2c(c1)oc1cc(-c3cc4ccccc4s3)ccc12)C(=O)O [Compound 136, (S)-2-(7-(benzo[b]thiophen-2-yl)dibenzo[b,d]furan-3-sulfonamido)-3-methylbutanoic acid]	< 1.5 nM
CC(C)[C@@H](NS(=O)(=O)c1ccc2oc3cc(-c4ccc[nH]4)ccc3c2c1)C(=O)O [Compound 116, (R)-2-(7-(1H-pyrrol-2-yl)dibenzo[b,d]furan-2-sulfonamido)-3-methylbutanoic acid]	3.1 nM
CC(C)[C@H](NS(=O)(=O)c1ccc2c(c1)oc1ccc(-c3nc4c(s3)CCCC4)cc12)C(=O)O [Compound 307, (S)-3-methyl-2-(8-(4,5,6,7-tetrahydrobenzo[d]thiazol-2-yl)dibenzo[b,d]furan-3-sulfonamido)butanoic acid]	< 1.5 nM
CC(C)[C@H](NS(=O)(=O)c1ccc2c(c1)oc1ccc(-c3ccc(-c4ccc(Cl)nc4)nc3)cc12)C(=O)O [Compound 59, (S)-2-(8-(6′-chloro-2,3′-bipyridin-5-yl)dibenzo[b,d]furan-3-sulfonamido)-3-methylbutanoic acid]	< 1.5 nM
CCc1ccc(-c2ccc3c(c2)oc2ccc(S(=O)(=O)N[C@@H](C(=O)O)C(C)C)cc23)s1 [Compound 239, (R)-2-(7-(5-ethylthiophen-2-yl)dibenzo[b,d]furan-2-sulfonamido)-3-methylbutanoic acid]	< 1.5 nM
CC(C)Cn1cc(-c2ccc3oc4cc(S(=O)(=O)N[C@H](C(=O)O)C(C)C)ccc4c3c2)cn1 [Compound 159, (S)-2-(8-(1-isobutyl-1H-pyrazol-4-yl)dibenzo[b,d]furan-3-sulfonamido)-3-methylbutanoic acid]	6.2 nM
COc1cccc2sc(-c3ccc4oc5cc(S(=O)(=O)N[C@H](C(=O)O)C(C)C)ccc5c4c3)nc12 [Compound 223, (S)-2-(8-(4-methoxybenzo[d]thiazol-2-yl)dibenzo[b,d]furan-3-sulfonamido)-3-methylbutanoic acid]	13 nM
CC(C)[C@@H](NS(=O)(=O)c1ccc2oc3cc(-c4nc5ccccc5o4)ccc3c2c1)C(=O)O [Compound 294, (R)-2-(7-(benzo[d]oxazol-2-yl)dibenzo[b,d]furan-2-sulfonamido)-3-methylbutanoic acid]	9.5 nM
CC(C)[C@H](NS(=O)(=O)c1ccc2c(c1)oc1ccc(C3=NCCS3)cc12)C(=O)O [Compound 107, (S)-2-(8-(4,5-dihydrothiazol-2-yl)dibenzo[b,d]furan-3-sulfonamido)-3-methylbutanoic acid]	21 nM
CC(C)[C@H](NS(=O)(=O)c1ccc2c(c1)oc1ccc(-c3ccc4ncccc4c3)cc12)C(=O)O [Compound 14, (S)-3-methyl-2-(8-(quinolin-6-yl)dibenzo[b,d]furan-3-sulfonamido)butanoic acid]	< 1.5 nM
CC(C)[C@H](NS(=O)(=O)c1ccc2c(c1)oc1ccc(-c3ccc(C(N)=O)s3)cc12)C(=O)O [Compound 111, (S)-2-(8-(5-carbamoylthiophen-2-yl)dibenzo[b,d]furan-3-sulfonamido)-3-methylbutanoic acid]	< 1.5 nM

Next, values leading:

IC50	SMILES
4.1 nM	CC(C)[C@H](NS(=O)(=O)c1ccc2c(c1)oc1ccc(-c3nc4ccc(Cl)cc4s3)cc12)C(=O)O [Compound 203, (S)-2-(8-(6-chlorobenzo[d]thiazol-2-yl)dibenzo[b,d]furan-3-sulfonamido)-3-methylbutanoic acid]
12.3 nM	Cc1nc(-c2ccc(C(F)(F)F)cc2)sc1-c1ccc2oc3cc(S(=O)(=O)N[C@H](C(=O)O)C(C)C)ccc3c2c1 [Compound 164, (S)-3-methyl-2-(8-(4-methyl-2-(4-(trifluoromethyl)phenyl)thiazol-5-yl)dibenzo[b,d]furan-3-sulfonamido)butanoic acid]
< 1.5 nM	CC(C)[C@H](NS(=O)(=O)c1ccc2c(c1)oc1cc(-c3ccoc3)ccc12)C(=O)O [Compound 79, (S)-2-(7-(furan-3-yl)dibenzo[b,d]furan-3-sulfonamido)-3-methylbutanoic acid]
12 nM	Cc1ccc2nc(-c3ccc4oc5cc(S(=O)(=O)N[C@H](C(=O)O)C(C)C)ccc5c4c3)sc2c1 [Compound 210, (S)-3-methyl-2-(8-(6-methylbenzo[d]thiazol-2-yl)dibenzo[b,d]furan-3-sulfonamido)butanoic acid]
1.5 nM	CCc1sc(-c2ccc3c(c2)oc2cc(S(=O)(=O)N[C@H](C(=O)O)C(C)C)ccc23)cc1Br [Compound 165, (S)-2-(7-(4-bromo-5-ethylthiophen-2-yl)dibenzo[b,d]furan-3-sulfonamido)-3-methylbutanoic acid]
< 1.5 nM	CC(C)[C@@H](NS(=O)(=O)c1ccc2oc3cc(-c4cncnc4)ccc3c2c1)C(=O)O [Compound 167, (R)-3-methyl-2-(7-(pyrimidin-5-yl)dibenzo[b,d]furan-2-sulfonamido)butanoic acid]
< 1.5 nM	CC(C)[C@H](NS(=O)(=O)c1ccc2c(c1)sc1cc(-c3ccoc3)ccc12)C(=O)O [Compound 60, (S)-2-(7-(furan-3-yl)dibenzo[b,d]thiophene-3-sulfonamido)-3-methylbutanoic acid]
6.1 nM	CC(C)[C@H](NS(=O)(=O)c1ccc2c(c1)oc1cc(-c3nc4ccccc4o3)ccc12)C(=O)O [Compound 227, (S)-2-(7-(benzo[d]oxazol-2-yl)dibenzo[b,d]furan-3-sulfonamido)-3-methylbutanoic acid]
< 1.5 nM	CC(C)[C@@H](NS(=O)(=O)c1ccc2c(c1)sc1cc(-c3ccco3)ccc12)C(=O)O [Compound 129, (R)-2-(7-(furan-2-yl)dibenzo[b,d]thiophene-3-sulfonamido)-3-methylbutanoic acid]
< 1.5 nM	CC(C)[C@H](NS(=O)(=O)c1ccc2c(c1)oc1ccc(-c3ccc(Cl)nc3)cc12)C(=O)O [Compound 64, (S)-2-(8-(6-chloropyridin-3-yl)dibenzo[b,d]furan-3-sulfonamido)-3-methylbutanoic acid]
21 nM	CC(C)[C@@H](NS(=O)(=O)c1ccc2oc3cc(-c4nc5ccccc5s4)ccc3c2c1)C(=O)O [Compound 293, (R)-2-(7-(benzo[d]thiazol-2-yl)dibenzo[b,d]furan-2-sulfonamido)-3-methylbutanoic acid]
640 nM	CCN=C(NCC)c1ccc2oc3cc(S(=O)(=O)N[C@H](C(=O)O)C(C)C)ccc3c2c1 [Compound 109, (S)-2-(8-(N,N′-diethylcarbamimidoyl)dibenzo[b,d]furan-3-sulfonamido)-3-methylbutanoic acid]
239 nM	CC(C)[C@H](NS(=O)(=O)c1ccc2c(c1)oc1cc(-c3nnn[nH]3)ccc12)C(=O)O [Compound 250, (S)-2-(7-(1H-tetrazol-5-yl)dibenzo[b,d]furan-3-sulfonamido)-3-methylbutanoic acid]
< 1.5 nM	CC(C)[C@H](NS(=O)(=O)c1ccc2c(c1)oc1ccc(-c3ncc(Cl)s3)cc12)C(=O)O [Compound 224, (S)-2-(8-(5-chlorothiazol-2-yl)dibenzo[b,d]furan-3-sulfonamido)-3-methylbutanoic acid]
4 nM	CC(C)[C@H](NS(=O)(=O)c1ccc2c(c1)oc1ccc(-c3noc(Cc4ccccc4)n3)cc12)C(=O)O [Compound 266, (S)-2-(8-(5-benzyl-1,2,4-oxadiazol-3-yl)dibenzo[b,d]furan-3-sulfonamido)-3-methylbutanoic acid]
6.9 nM	Cc1nc(-c2ccc3c(c2)oc2cc(S(=O)(=O)N[C@H](C(=O)O)C(C)C)ccc23)no1 [Compound 156, (S)-3-methyl-2-(7-(5-methyl-1,2,4-oxadiazol-3-yl)dibenzo[b,d]furan-3-sulfonamido)butanoic acid]
43 nM	CC(C)[C@H](NS(=O)(=O)c1ccc2c(c1)sc1ccc(-c3ccco3)cc12)C(=O)O [Compound 53, (S)-2-(8-(furan-2-yl)dibenzo[b,d]thiophene-3-sulfonamido)-3-methylbutanoic acid]
15.6 nM	CC(C)[C@H](NS(=O)(=O)c1ccc2c(c1)sc1ccc(-c3cccnc3)cc12)C(=O)O [Compound 11, (S)-3-methyl-2-(8-(pyridin-3-yl)dibenzo[b,d]thiophene-3-sulfonamido)butanoic acid]
